From patent publication US20160046904A1, “Method For Culturing Hepatoblast-Like Cells And Culture Product Thereof” (NATIONAL INSTITUTES OF BIOMEDICAL INNOVATION, HEALTH AND …, priority 2013, published 2016)

What was measured:
[1] = system: HBCs derived from ES cells (H9); test: ALB/CK7 colony count of HBCs cultured on laminin-coated culture dishes (immunostaining); assay type: cell-based, human; conditions: HBCs seeded at 200 cells/cm^2 on laminin-coated dish, medium 3, 5 days after seeding
Procedure: (§1) In Example 1 and Comparative Example 1, with regard to HBCs derived from ES cells obtained in Reference Example 2, properties of cells treated with laminins were confirmed. The coating treatment was performed on cell culture dishes by using various types of human laminins with different isoforms (laminin 111 (LN111), laminin 211 (LN211), laminin 411 ([…]), and laminin 511 (LN511)). The coating treatment was conducted by preparing 20 μg/ml of each Laminin Coating Solution, adding the Laminin Coating Solution to each well at 5 μg/cm^2, and leaving the cell culture dishes at room temperature for 1 hour or more.
In Example 2 and Comparative Example 2, HBCs derived from ES cells (H9) obtained in Reference Example 2 were seeded in each well of various types of laminin-coated culture dishes at 200 cells/cm^2 in a similar manner to Example 1 and Comparative Example 1, the HBCs were cultured by using the medium 3, and the expressions of ALB and CK7 by cultured cells were confirmed. The HBCs were fixed by using a 4% paraformaldehyde solution 5 days after seeding the HBCs, immunostaining was performed, and thereafter, the numbers of colonies which were ALB positive (+)/CK7 positive (+), ALB positive (+)/CK7 negative (−) and ALB negative (−)/CK7 […] were counted. When the cells were cultured in the LN111-coated culture dish, the highest number of the ALB positive (+)/CK7 positive (+) colonies, which were colonies of hepatoblast-like cells, was able to be confirmed.

[2] = system: HBCs derived from ES cells; test: Proliferation of HBCs on various laminin-coated culture dishes; assay type: cell-based, human; conditions: attached HBCs cultured for 7 days; compared among LN111, LN211, LN411, LN511 coated dishes (FIG. 8)
Procedure: as §1
(§2) Next, the cells on day 9 after treated by the same procedure as in Reference Example 2 were seeded on each well of various types of laminin coated culture dishes at 7.5×10^4 cells/cm^2, the medium was exchanged after 15 minutes, and cells attached to the dishes were used as HBCs and cells not attached to the dishes were used as NHBCs (see FIG. 5). With regard to cells before passage (the cell population which contained both HBCs and NHBCs: before), HBCs, and NHBCs, the expressions of integrin α6 (ITGA6) and integrin β1 (ITGB1) were confirmed. As a result, almost all cells of HBCs were confirmed to be co-positive (FIG. 7). The HBCs attached to the dishes were each further cultured for 7 days. […]

[3] = system: HBCs derived from ES cells; test: AFP expression of cells cultured on various laminin-coated culture dishes; assay type: cell-based, human; conditions: cells cultured on laminin-coated dish, compared with cells immediately after passage (P0) (FIG. 9)
Procedure: as §1, §2

[4] = system: HBCs from human ES cells (H9); test: Marker positive rates of HBCs passaged 8 times on LN111- or LN111E8-coated culture dish (flow cytometry); assay type: cell-based
Procedure: By the same procedure as in Example 9, HBCs were seeded to each well of various types of laminin coated culture dishes at 7.5×10^4 cells/cm^2 by using a LN111- or LN111E8-coated culture dish, and the medium was exchanged after 15 minutes (the number of passages of 0, day 9). After that, the cells were cultured for from 6 days to 7 days with the medium being exchanged every day, and a cell suspension was prepared so that the number of cells was 7.5×10^4 cells/cm^2. Then, the cells were passaged on the LN111-coated culture dish or the LN111E8-coated culture dish. At the time when such passage operations were repeated 8 times (P8), the positive rate of AFP (%) was confirmed by flow cytometry analysis. […] In addition, also with regard to markers other than AFP (CD133, EpCAM, ALB, CK7, and CK19), their positive rates were confirmed by flow cytometry analysis at the time when the passage culture was repeated up to 8 times (P8).

[5] = system: HBCs derived from ES cells (H9) and HBCs derived from iPS cells (Dotcom); test: Repeated passage (15 times) of HBCs on LN111-coated culture dish: cell number and AFP flow cytometry; assay type: cell-based, human
Procedure: In Example 3, the proliferative capacities of HBCs derived from ES cells (H9) obtained in Reference Example 2 and HBCs derived from iPS cells (Dotcom) generated by the same procedure were confirmed. The cells derived from ES cells or those derived from iPS cells on day 9 obtained by treating the cells by the same procedure as in Reference Example 2 were seeded in each well of the LN111-coated culture dish at 7.5×10^4 cells/cm^2, and the medium was exchanged after 15 minutes (the number of times of passage was 0, on day 9). After that, the cells were cultured for from 6 days to 7 days with the medium being exchanged every day, a cell suspension was prepared so that the number of cells was 7.5×10^4 cells/cm^2, and the cells were passaged on the LN111-coated culture dish. Such passage operations were performed 15 times.

[6] = system: HBCs derived from ES cells (H9); test: Differentiation induction of LN111-maintained HBCs to bile duct epithelial cells (EGF, ILGF2, collagen gel); assay type: cell-based, human; conditions: HBC P10 maintained on LN111 vs HBC P0; 14 days differentiation
Procedure: Specifically, in Example 6, HBCs (H9) without passage (HBC P0), HBCs passaged 10 times (HBC P10), and HBCs derived from a single cell (clone) were embedded in collagen gel by using a medium containing EGF (50 ng/ml) and ILGF2 (20 ng/ml), and were cultured for 14 days. Then, the expression of each of marker genes before and after the differentiation induction treatment to a bile duct by EGF and ILGF2 was confirmed. The expression was confirmed by a RT-PCR technique (FIG. 17). Commercially available primer sets and reagents were used for RT-PCR measurement. SOX9 and Type IV collagen are markers of bile duct epithelial cells, and ALB and αAT are markers of mature hepatocytes.
Each of relative expression levels of marker genes of bile duct epithelial cells and mature hepatocytes was confirmed by defining the expression level in cells of […] before being subjected to the differentiation induction as 1. The expressions of markers of bile duct epithelial cells were increased by the differentiation induction treatment. In addition, the expression levels of bile duct marker genes (SOX9 and Type IV collagen) by bile duct epithelial cells which were induced to differentiate from HBC P10 were higher than those which were induced to differentiate from HBC P0 (FIG. 17).

[7] = system: HBCs derived from ES cells (H9); test: Differentiation induction of LN111-maintained HBCs to hepatocytes (HGF, OsM, DEX on Matrigel); assay type: cell-based, human; conditions: HBC P10 maintained on LN111 vs HBC P0; 14 days differentiation
Procedure: In view of the foregoing, in Example 5, HBCs (H9) with the number of passages of 0 (HBC P0), HBCs (H9) with the number of passages of 10 (HBC P10), and HBCs derived from a single cell (HBC clone) were cultured in a medium containing HGF, OsM (20 ng/ml), and DEX (10^−6 M) on Matrigel for 14 days, and the expression of each of marker genes before and after the differentiation induction treatment into liver by HGF, OsM, and DEX was confirmed. Clone cells were obtained by seeding cells on a culture dish at 200 cells/cm^2. The expression of each of gene markers was confirmed by real-time RT-PCR. Commercially available primer sets and reagents were used for real-time RT-PCR measurement. […]
Each of relative expression levels of marker genes of mature hepatocytes was confirmed by defining the expression level by human frozen hepatocytes cultured for 48 hours after being seeded on a culture dish as 1. […] It was confirmed that the differentiation rate into mature hepatocytes of hepatocytes obtained by differentiation induction on the HBCs (H9) with the number of passages of 10 (HBC P10) was higher than that of the hepatocytes obtained by differentiation induction on the HBCs (HBC P0), also from the ASGR1 positive cell rates analyzed by flow cytometry (FIG. 16A) and the amounts of ALB secretion and Urea secretion (FIGS. 16B and 16C).

Substance	number of ALB+/CK7+ colonies [1]	number of ALB+/CK7− colonies [1]	number of ALB−/CK7+ colonies [1]	proliferation rate of HBCs [2]	expression of AFP [3]	positive rate of AFP after passage ([4]; passaged 8 times (P8) (FIG. 24))	positive rates of markers other than AFP (CD133, EpCAM, ALB, CK7, CK19) ([4]; passaged 8 times (P8) (FIG. 25))	AFP positive cells ([5]; HBC P1, P10, P15, flow cytometry (FIG. 11))	proliferation of cultured cells over passages ([5]; passage every 6 to 7 days, 15 passages (FIG. 10))	differentiation ability to bile duct epithelial cells [6]	differentiation efficiency and differentiation ability to hepatocytes [7]
LN511: human recombinant laminin 511, comparative dish coating	14	2	36								
LN211: human recombinant laminin 211, comparative dish coating	25	3	12								
LN111: human recombinant laminin 111 (α1β1γ1), used to coat cell culture dishes	82	2	5	highest	expressed AFP in a similar manner to a group of cells immediately after passage (P0)	expressions of AFP were maintained	expressions of all markers were maintained	high expression rates of AFP regardless of the number of passages	continued to proliferate even after passaged 15 times	improved	improved
LN411: human recombinant laminin 411, comparative dish coating	12	6	31								
